pIC50: −log10 of the molar value.
Target: cofactor-independent phosphoglycerate mutase (iPGM), Brugia malayi / Caenorhabditis elegans
Assay: nematode iPGM enzyme inhibitors, biochemical, cofactor-independent, HTS (AID 743230)
Details: recombinant nematode iPGM, coupled NADH absorbance decline

pIC50	Compound
4.98	CCc1cc2c[n+](C3CCCCC3)sc2s1
4.42	Nc1cc2cccnc2c2ncccc12

Source: PubChem BioAssay AID743230
